The values below are quoted from earlier work in US7199111B2, “Aqueous ifosfamide compositions for parenteral administration and a process for their preparations” (Bharat Serums & Vaccines Ltd., priority 2002, dated 2007).

The test system of one data set is mouse. The following applies: intravenous administration, reported.
The conditions of data set [1]: Ifosfamide in water.

Take `O=P1(NCCCl)OCCCN1CCCl` (centres unmarked) [Ifosfamide, 3-(2-chloroethyl)-2-[(2-chloroethyl)amino]-tetrahydro-2H-1,3,2-oxazaphosphorin-2-oxide]: the LD50 with mouse is listed as 338 mg/kg body weight. Moreover, the water solubility result in data set [1] is listed as “about 100 mg/ml”.
